In patent US7368578B2, “Five-membered heterocyclic compounds” (Takeda Pharmaceutical Company Limited, priority 2002, dated 2008) one finds inhibition and melting point data, which are given here for three compounds.

One series has as its target T1, human PPARγ1 (Homo sapiens, UniProt P37231).
T1 construct: expressed in transfected cells; host or cells: CHO-K1 cells stably transfected with pVgRXR2-hPPARγ and reporter plasmid pGL3-4ERPP-TK neo
T1 sequence (P37231 1-477 isoform P37231-2): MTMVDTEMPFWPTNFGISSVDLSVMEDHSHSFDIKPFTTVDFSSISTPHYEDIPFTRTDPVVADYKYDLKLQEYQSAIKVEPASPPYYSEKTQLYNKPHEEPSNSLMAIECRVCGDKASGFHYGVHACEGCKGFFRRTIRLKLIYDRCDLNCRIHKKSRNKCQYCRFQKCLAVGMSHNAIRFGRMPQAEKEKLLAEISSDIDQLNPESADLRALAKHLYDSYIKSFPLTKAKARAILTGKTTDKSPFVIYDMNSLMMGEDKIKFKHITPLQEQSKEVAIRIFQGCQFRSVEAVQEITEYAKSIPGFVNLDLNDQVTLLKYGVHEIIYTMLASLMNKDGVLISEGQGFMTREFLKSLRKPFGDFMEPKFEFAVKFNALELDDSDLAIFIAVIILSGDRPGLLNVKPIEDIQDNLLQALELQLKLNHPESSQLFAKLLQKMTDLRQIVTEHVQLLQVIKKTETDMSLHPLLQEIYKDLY
T1 sequence (P19793 1-462 partner): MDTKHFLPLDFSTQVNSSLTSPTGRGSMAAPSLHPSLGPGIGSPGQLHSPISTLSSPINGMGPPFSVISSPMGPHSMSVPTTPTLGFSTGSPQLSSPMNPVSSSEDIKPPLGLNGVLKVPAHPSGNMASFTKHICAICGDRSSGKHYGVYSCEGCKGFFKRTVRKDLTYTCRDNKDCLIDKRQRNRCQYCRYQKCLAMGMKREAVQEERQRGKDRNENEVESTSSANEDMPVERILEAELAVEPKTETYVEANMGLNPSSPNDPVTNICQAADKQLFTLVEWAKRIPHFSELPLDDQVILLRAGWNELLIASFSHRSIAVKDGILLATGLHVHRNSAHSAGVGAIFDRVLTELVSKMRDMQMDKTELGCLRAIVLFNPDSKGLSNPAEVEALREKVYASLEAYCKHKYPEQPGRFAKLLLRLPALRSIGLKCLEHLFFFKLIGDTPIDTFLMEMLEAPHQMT
Description: Human PPARγ1 antagonist assay (luciferase reporter in PPARγ:RXRα:4ERPP/CHO-K1 cells). The format is cell-based. Particulars: test compound 10^−6 M, 10 nM compound A as stimulant, luciferase activity, 24 hrs, read-out: Inhibitory rate (%). As to the method:
PPARγ:RXRα:4ERPP/CHO-K1 cells (obtained in Reference Example 5a) cultured in Ham's F-12 medium (GIBCO, Inc.) supplemented with 10% fetal bovine serum (TRACE SCIENTIFIC, Ltd.) were seeded in a well of a 96 well white plate at 2×10^4 cells/well and cultured under 37° C. 5% CO2 conditions for 24 hrs. After removal of the medium, Ham's F-12 medium (GIBCO) containing 60 μl of 0.1% BSA (not containing fatty acid) (Wako Pure Chemical Industries, Ltd.), 20 μl of 10^−5M or 10^−6 M test compound and 20 μl of compound A having a final concentration of 10 nM as a stimulant were added, and the cells were cultured under 37° C. 5% CO2 conditions for 24 hrs. After removal of the medium, 40 μl of Pickagene LT7.5 (Wako Pure Chemical Industries, Ltd.) 2-fold diluted with HBSS (HANKS' BALANCED SALT SOLUTION) (BIO WHITTAKER Inc.) was added. After stirring, luciferase activity was measured using 1420 ARVO Multilabel Counter (Wallac, Inc.). In addition, a test similar to the above was conducted for the non-use of the aforementioned test compound alone and for the non-use of the aforementioned test compound and compound A to determine the luciferase activity.
The human PPARγ1 antagonistic activity of the test compound was evaluated using percentages (% inhibition) wherein the luciferase activity when 10 nM compound A alone was added was 0%, and the luciferase activity when the test compound and compound A were not added was 100%. The concentration of the test compound was 10^−5 M for the compounds of Example 42 and 315 and 10^−6 M for other test compounds.
After a CHO-K1 cell cultured in a cell culture flask (150 cm^2) (produced by Corning Costar Corporation, USA) containing Ham's F-12 medium (produced by Life Technologies, Inc., USA) supplemented with 10% fetal bovine serum (produced by Life Technologies, Inc., USA) was detached by treating with 0.5 g/L trypsin-0.2 g/L EDTA (ethylenediaminetetraacetic acid) (produced by Life Technologies, Inc., USA), the cell was washed with PBS (phosphate-buffered saline) (produced by Life Technologies, Inc., USA), centrifuged (1000 rpm, 5 minutes), and then suspended in PBS. Subsequently, the DNA was introduced into the cells under the conditions shown below using GENE PULSER (produced by Bio-Rad Laboratories, USA).
Namely, to a cuvette having a 0.4 cm gap, added were 8×10^6 cells and 10 μg of plasmid pVgRXR2-hPPARγ obtained in Reference Example 4a and 10 μg of reporter plasmid pGL3-4ERPP-TK neo obtained in Reference Example 2a, which was subjected to electroporation at the voltage of 0.25 kV under the capacitance of 960 μF. Subsequently, the cell was transferred into a Ham's F-12 medium containing 10% fetal bovine serum and cultured for 24 hours and then the cells were detached again and centrifuged, and then suspended in HAM F12 medium containing 10% fetal bovine serum supplemented with 500 μg/ml of GENETICIN (produced by Life Technologies, Inc., USA) and 250 μg/ml of ZEOCIN (produced by Invitrogen, USA). The obtained suspension was diluted to the density of 10^4 cells/ml and inoculated to a 96-well plate (produced by Corning Costar Corporation, USA), which was cultured in a CO2 gas incubator at 37° C., whereby obtaining a GENETICIN- and ZEOCIN-resistant transformant. Subsequently, after the transformant cell line thus obtained was cultured in a 24-well plate (produced by Corning Costar Corporation, USA), selected was a cell line in which the luciferase was expressed and induced, i.e., PPARγ:RXRα:4ERPP/CHO-K1 cell by the addition of 10 μM pioglitazone hydrochloride.
Background: In a reporter assay the amount or activity of a reporter protein is the signal.

Take `COc1cc(COc2nn(-c3ccccc3)cc2/C=C/c2csc(C(C)(C)C)n2)ccc1OCc1nc(-c2ccc(CC(=O)O)cc2)oc1C` [Example 359, {4-[4-({4-[({4-[(E)-2-(2-tert-butyl-1,3-thiazol-4-yl)ethenyl]-1-phenyl-1H-pyrazol-3-yl}oxy)methyl]-2-methoxyphenoxy}methyl)-5-methyl-1,3-oxazol-2-yl]phenyl}acetic acid]: the inhibition at 1 µM on human PPARγ1 stood at 111%. Take `COc1cc(COc2nn(-c3ccccc3)cc2/C=C/c2coc(C(C)(C)C)n2)ccc1OCc1nc(-c2ccc(CC(=O)O)cc2)oc1C` [Example 371, {4-[4-({4-[({4-[(E)-2-(2-tert-butyl-1,3-oxazol-4-yl)ethenyl]-1-phenyl-1H-pyrazol-3-yl}oxy)methyl]-2-methoxyphenoxy}methyl)-5-methyl-1,3-oxazol-2-yl]phenyl}acetic acid]: at human PPARγ1, the inhibition at 1 µM turned out to be 114%.

One may read the melting point as the temperature of the solid-liquid transition. Regarding `CCc1nc(/C=C/c2cn(-c3ccccc3)nc2OCc2ccc(OCc3nc(-c4cccc(-c5nnn[nH]5)c4)oc3C)c(OC)c2)cs1` [Example 373, 5-{3-[4-({4-[({4-[(E)-2-(2-ethyl-1,3-thiazol-4-yl)ethenyl]-1-phenyl-1H-pyrazol-3-yl}oxy)methyl]-2-methoxyphenoxy}methyl)-5-methyl-1,3-oxazol-2-yl]phenyl}-1H-tetrazole], the melting point was 144 to 147 °C. Further, at human PPARγ1, the inhibition at 1 µM was 112%.
